Source: US20220153751A1, “BIFUNCTIONAL COMPOUNDS” (BioTheryX, Inc., priority 2018, published 2022)

What was measured:
Format in all cases: cell-based
MOLM-13 cells = experiment: MOLM-13 cell viability assay (CellTiter-Glo); conditions: Homo sapiens, MOLM-13, 72 h, 3 days, read-out: MOLM-13 Cell Viability % DMSO at 1 μM
Procedure: MOLM-13 cells were cultured in RPMI 1640 media supplemented with 10% fetal bovine serum, streptomycin and penicillin, and were plated in walled 96-well plates at 2500 cells/well. Cells were incubated in DMSO (control) or the indicated compound for 3 days at 37° C. and 5% CO2. Following the incubation period, 100 μL of CellTiterGlow (CTG) reagent (CellTiter-Glo® Luminescent Cell Viability Assay, Promega (Madison, Wis.)) was added to each well. Following a 10 minutes incubation with shaking, luminescence was measured using the EnVision Multimode plate reader.
The MOLM-13 cell viability values as % DMSO are reported as “A”, “B”, “C”, or “D”. “A” represents a % viability value of less than 50% (value <50%). “B” represents a % viability value of equal to or more than 50% and less than 70% (50%≤value<70%). “C” represents a % viability value of equal to or more than 70% and less than 90% (70%≤value<90%). “D” represents a % viability value of equal or more than 90% (value ≥90%).

CDK9 = target: T1, CDK9 (Homo sapiens, UniProt P50750); experiment: CDK9 degradation assay (Western blot, MV-4-11 cells); conditions: 6-8 h; for Dmax at 0.1 µM: MV4-11, 0.1 μM; for Dmax at 1 µM: MV4-11, 1 μM
T1 construct: Whole cell extracts were prepared using RIPA buffer; endogenous in cells; host or cells: MV-4-11
T1 sequence (P50750 whole entry): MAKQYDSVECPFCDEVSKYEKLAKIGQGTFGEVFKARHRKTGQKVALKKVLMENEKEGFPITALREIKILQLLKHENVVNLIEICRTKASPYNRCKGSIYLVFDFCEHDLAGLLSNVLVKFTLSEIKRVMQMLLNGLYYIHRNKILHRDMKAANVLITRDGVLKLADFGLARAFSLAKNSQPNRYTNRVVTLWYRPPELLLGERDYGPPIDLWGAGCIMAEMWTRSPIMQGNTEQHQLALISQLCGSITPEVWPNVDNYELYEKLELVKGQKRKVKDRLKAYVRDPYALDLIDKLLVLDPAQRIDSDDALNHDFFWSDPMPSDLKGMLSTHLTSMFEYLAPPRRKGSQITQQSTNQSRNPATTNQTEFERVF
Procedure: (§1) MV-4-11 cells were grown in RPMI 1640 media supplemented with 10% fetal bovine serum, streptomycin and penicillin.
(§2) Cells were cultured at approximately 10^6 cells per mL and incubated in DMSO or the indicated compound for 6-8 h. Whole cell extracts were prepared using RIPA buffer according to manufacturer's protocol (Pierce). Briefly, 3×10^6 cells were washed once in PBS, the cell pellets were resuspended in RIPA buffer and allowed to incubate for 15 minutes on ice. Cells debris was removed by centrifugation and the cleared whole cell lysates were transferred to new tubes for further analysis.
(§3) For Western blot analysis, whole cell protein extracts were separated on 4-12% SDS-polyacrylamide gels, transferred to nitrocellulose and probed with the indicated primary antibodies. Membranes were subsequently washed and probed with the appropriate IRDye secondary antibodies (LI-COR). The signal was detected using the Odyssey Imaging System (LI-COR).
(§4) The following antibodies were used in these studies: Anti-eRF3/GSPT1: Abcam, ab126090 (Cambridge, Mass.); Anti-Ikaros: Abcam, ab191394 (Cambridge, Mass.); Anti-CK1α: Abcam, ab108296 (Cambridge, Mass.); Anti-CDK9: Santa Cruz Biotechnology, sc13130 (Dallas, Tex.); Anti-CDK16: Millipore Sigma, HPA001366 (St. Louis, Mo.); 3-actin (8H10comD10) mouse monoclonal antibody: Cell Signaling Technology, #3700 (Danvers, Mass.); IRDye 680RD Goat anti-rabbit antibody: LI-COR, 926-68071 (Lincoln, Nebr.); IRDye 800CW Goat anti-mouse antibody: LI-COR, 926-32210 (Lincoln, Nebr.).
(§5) CDK9 activities are shown in Table 4 at two different concentrations. CDK16 activities are shown in Table 5 at two different concentrations. In each of Tables 1-5, the % degradation values are reported as “A”, “B”, “C”, or “D”. “A” represents a % degradation value of less than 25% (value <25%). “B” represents a % degradation value of equal to or more than 25% and less than 50% (25%≤value<50%). “C” represents a % degradation value of equal to or more than 50% and less than 75% (50%≤value<75%). “D” represents a % degradation value of equal to or more than 75% (value ≥75%).

CDK16 = target: T2, CDK16 (Homo sapiens, UniProt Q00536); experiment: CDK16 degradation assay (Western blot, MV-4-11 cells); conditions: 6-8 h; for Dmax at 0.1 µM: MV4-11, 0.1 μM; for Dmax at 1 µM: MV4-11, 1 μM
T2 construct: Whole cell extracts were prepared using RIPA buffer; endogenous in cells; host or cells: MV-4-11
T2 sequence (Q00536 whole entry): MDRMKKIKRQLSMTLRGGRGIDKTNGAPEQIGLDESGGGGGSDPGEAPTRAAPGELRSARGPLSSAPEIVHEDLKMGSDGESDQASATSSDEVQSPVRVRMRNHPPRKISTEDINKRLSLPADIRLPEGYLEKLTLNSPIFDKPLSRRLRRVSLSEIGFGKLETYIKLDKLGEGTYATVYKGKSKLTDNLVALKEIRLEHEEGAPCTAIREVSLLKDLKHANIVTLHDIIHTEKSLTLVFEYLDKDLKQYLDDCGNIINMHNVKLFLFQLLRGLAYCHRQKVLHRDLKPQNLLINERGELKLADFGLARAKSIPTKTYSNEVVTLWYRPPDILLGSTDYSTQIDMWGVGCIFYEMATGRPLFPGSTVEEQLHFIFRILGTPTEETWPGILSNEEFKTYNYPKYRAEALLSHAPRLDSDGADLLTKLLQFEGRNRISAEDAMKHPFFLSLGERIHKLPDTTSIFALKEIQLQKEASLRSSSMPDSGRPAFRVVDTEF
Procedure: as §1, §2, §3, §4, §5

Compound | Dmax at 0.1 µM (CDK9) | Dmax at 1 µM (CDK9) | Dmax at 0.1 µM (CDK16) | Dmax at 1 µM (CDK16) | viability at 1 µM (MOLM-13 cells)
CC(C)(C)c1cnc(CSc2cnc(NC(=O)C3CCN(CC(=O)NCCCCCNC(=O)NCc4cc5c(s4)C(=O)N(C4CCC(=O)NC4=O)C5)CC3)s2)o1 (centres unmarked) [Compound 1, 3-[8-Oxo-3-({3-[5-(2-{4-[(5-{[5-(tert-butyl)-1,3-oxazol-2-yl]methylthio}-1,3-thiazol-2-ylamino)carbonyl]-1-piperidyl}acetylamino)pentyl]ureido}methyl)-2-thia-7-azabicyclo[3.3.0]octa-1(5),3-dien-7-yl]-2,6-piperidinedione] |  |  |  |  | > 90%
CN(CCNCC(=O)NCc1cc2c(s1)C(=O)N(C1CCC(=O)NC1=O)C2)CCNC(=O)CN1CCC(C(=O)Nc2ncc(SCc3ncc(C(C)(C)C)o3)s2)CC1 (centres unmarked) [Compound 47, N-(5-(((5-(tert-butyl)oxazol-2-yl)methyl)thio)thiazol-2-yl)-1-(1-(5-(2,6-dioxopiperidin-3-yl)-6-oxo-5,6-dihydro-4H-thieno[2,3-c]pyrrol-2-yl)-8-methyl-3,12-dioxo-2,5,8,11-tetraazatridecan-13-yl)piperidine-4-carboxamide] |  |  |  |  | 70 to 90%
Cn1ncc(-c2nc(N[C@H]3CC[C@H](NCC(=O)NCCCCNCC(=O)NCc4scc5c4C(=O)N(C4CCC(=O)NC4=O)C5=O)CC3)ncc2F)c1CC1CC1 (some centres unmarked) [Compound 48, 2-(((1r,4r)-4-((4-(5-(cyclopropylmethyl)-1-methyl-1H-pyrazol-4-yl)-5-fluoropyrimidin-2-yl)amino)cyclohexyl)amino)-N-(4-((2-(((5-(2,6-dioxopiperidin-3-yl)-4,6-dioxo-5,6-dihydro-4H-thieno[3,4-c]pyrrol-1-yl)methyl)amino)-2-oxoethyl)amino)butyl)acetamide] |  |  |  |  | > 90%
Cn1ncc(-c2nc(N[C@H]3CC[C@H](NCCCCCCCNCC(=O)NCc4cc5c(s4)C(=O)N(C4CCC(=O)NC4=O)C5)CC3)ncc2Cl)c1CC1CC1 (some centres unmarked) [Compound 53, 2-((7-(((1r,4r)-4-((5-chloro-4-(5-(cyclopropylmethyl)-1-methyl-1H-pyrazol-4-yl)pyrimidin-2-yl)amino)cyclohexyl)amino)heptyl)amino)-N-((5-(2,6-dioxopiperidin-3-yl)-6-oxo-5,6-dihydro-4H-thieno[2,3-c]pyrrol-2-yl)methyl)acetamide] |  |  |  |  | > 90%
Cn1ncc(-c2nc(N[C@H]3CC[C@H](NCCCCCNCC(=O)NCc4cc5c(s4)C(=O)N(C4CCC(=O)NC4=O)C5)CC3)ncc2Cl)c1CC1CC1 (some centres unmarked) [Compound 60, 2-((5-(((1r,4r)-4-((5-chloro-4-(5-(cyclopropylmethyl)-1-methyl-1H-pyrazol-4-yl)pyrimidin-2-yl)amino)cyclohexyl)amino)pentyl)amino)-N-((5-(2,6-dioxopiperidin-3-yl)-6-oxo-5,6-dihydro-4H-thieno[2,3-c]pyrrol-2-yl)methyl)acetamide] |  |  |  |  | > 90%
Cn1ncc(-c2nc(N[C@H]3CC[C@H](NCC(=O)NCCOCCOCCOCCNCc4cc5c(s4)C(=O)N(C4CCC(=O)NC4=O)C5)CC3)ncc2F)c1CC1CC1 (some centres unmarked) [Compound 62, 2-(((1r,4r)-4-((4-(5-(cyclopropylmethyl)-1-methyl-1H-pyrazol-4-yl)-5-fluoropyrimidin-2-yl)amino)cyclohexyl)amino)-N-(1-(5-(2,6-dioxopiperidin-3-yl)-6-oxo-5,6-dihydro-4H-thieno[2,3-c]pyrrol-2-yl)-5,8,11-trioxa-2-azatridecan-13-yl)acetamide] |  |  |  |  | > 90%

Further lines, with some results ahead:

Dmax at 0.1 µM (CDK9) | Dmax at 1 µM (CDK9) | Dmax at 0.1 µM (CDK16) | Dmax at 1 µM (CDK16) | Compound | viability at 1 µM (MOLM-13 cells)
≥ 75% | ≥ 75% | 25 to 50% | 25 to 50% | CC(C)(C)c1cnc(CSc2cnc(NC(=O)C3CCN(CC(=O)NCCCNC(=O)NCc4cc5c(s4)C(=O)N(C4CCC(=O)NC4=O)C5)CC3)s2)o1 (centres unmarked) [Compound 12, N-(5-(((5-(tert-butyl)oxazol-2-yl)methyl)thio)thiazol-2-yl)-1-(2-((3-(3-((5-(2,6-dioxopiperidin-3-yl)-6-oxo-5,6-dihydro-4H-thieno[2,3-c]pyrrol-2-yl)methyl)ureido)propyl)amino)-2-oxoethyl)piperidine-4-carboxamide] | > 90%
50 to 75% | ≥ 75% | < 25% | < 25% | CN(CCNC(=O)CN1CCC(C(=O)Nc2ncc(SCc3ncc(C(C)(C)C)o3)s2)CC1)CCNC(=O)NCc1cc2c(s1)C(=O)N(C1CCC(=O)NC1=O)C2 (centres unmarked) [Compound 15, N-(5-(((5-(tert-butyl)oxazol-2-yl)methyl)thio)thiazol-2-yl)-1-(1-(5-(2,6-dioxopiperidin-3-yl)-6-oxo-5,6-dihydro-4H-thieno[2,3-c]pyrrol-2-yl)-7-methyl-3,11-dioxo-2,4,7,10-tetraazadodecan-12-yl)piperidine-4-carboxamide] | 70 to 90%
50 to 75% | ≥ 75% | ≥ 75% | ≥ 75% | Cn1ncc(-c2nc(N[C@H]3CC[C@H](NCC(=O)NCCCCCNC(=O)NCc4cc5c(s4)C(=O)N(C4CCC(=O)NC4=O)C5)CC3)ncc2Cl)c1CC1CC1 (some centres unmarked) [Compound 16, 2-(((1r,4r)-4-((5-chloro-4-(5-(cyclopropylmethyl)-1-methyl-1H-pyrazol-4-yl)pyrimidin-2-yl)amino)cyclohexyl)amino)-N-(5-(3-((5-(2,6-dioxopiperidin-3-yl)-6-oxo-5,6-dihydro-4H-thieno[2,3-c]pyrrol-2-yl)methyl)ureido)pentyl)acetamide] | > 90%
50 to 75% | ≥ 75% | 50 to 75% | 50 to 75% | Cn1ncc(-c2nc(N[C@H]3CC[C@H](NCC(=O)NCCCCCNC(=O)NCc4cc5c(s4)C(=O)N(C4CCC(=O)NC4=O)C5)CC3)ncc2F)c1CC1CC1 (some centres unmarked) [Compound 17, 2-(((1r,4r)-4-((4-(5-(cyclopropylmethyl)-1-methyl-1H-pyrazol-4-yl)-5-fluoropyrimidin-2-yl)amino)cyclohexyl)amino)-N-(5-(3-((5-(2,6-dioxopiperidin-3-yl)-6-oxo-5,6-dihydro-4H-thieno[2,3-c]pyrrol-2-yl)methyl)ureido)pentyl)acetamide] | 
≥ 75% | ≥ 75% | 50 to 75% | ≥ 75% | Cn1ncc(-c2nc(N[C@H]3CC[C@H](NCCCCCCCCNC(=O)NCc4cc5c(s4)C(=O)N(C4CCC(=O)NC4=O)C5)CC3)ncc2F)c1CC1CC1 (some centres unmarked) [Compound 23, 1-(8-(((1r,4r)-4-((4-(5-(cyclopropylmethyl)-1-methyl-1H-pyrazol-4-yl)-5-fluoropyrimidin-2-yl)amino)cyclohexyl)amino)octyl)-3-((5-(2,6-dioxopiperidin-3-yl)-6-oxo-5,6-dihydro-4H-thieno[2,3-c]pyrrol-2-yl)methyl)urea] | > 90%
25 to 50% | ≥ 75% | 25 to 50% | ≥ 75% | Cn1ncc(-c2nc(N[C@H]3CC[C@H](NCC(=O)NCCCCCNCC(=O)NCc4scc5c4CN(C4CCC(=O)NC4=O)C5=O)CC3)ncc2Cl)c1CC1CC1 (some centres unmarked) [Compound 31, 2-(((1r,4r)-4-((5-chloro-4-(5-(cyclopropylmethyl)-1-methyl-1H-pyrazol-4-yl)pyrimidin-2-yl)amino)cyclohexyl)amino)-N-(5-((2-(((5-(2,6-dioxopiperidin-3-yl)-4-oxo-5,6-dihydro-4H-thieno[3,4-c]pyrrol-1-yl)methyl)amino)-2-oxoethyl)amino)pentyl)acetamide] | > 90%
